According to patent publication US20200087258A1, “INHIBITOR OF CITRATE TRANSPORTER AND THEIR USE IN THERAPY” (Eternygen GmbH, priority 2017, published 2020):

Experiments:
GLT-1 = biological target: T1, GLT-1 (Homo sapiens, UniProt P43004); experiment: 3H-glutamate uptake counter assay in HEK293 cells overexpressing human GLT-1; assay type: cell-based
T1 construct: host or cells: HEK293 (virus made in GP293 packaging cells)
Procedure: The compound was obtained by screening of a library containing more than 50,000 lead-like compounds and fragments. The library was tested using a functional citrate uptake assay with HEK293 cells overexpressing recombinant human INDY. The following hit confirmation was conducted in the same assay system. To confirm the activity of selected compounds on the target INDY another cell assay was conducted. In this assay system citrate uptake was measured using HepG2 cells which endogenously express INDY. Furthermore selectivity of selected compounds was tested for two other transporters in different assay systems. The first transporter was the glutamate transporter GLT-1 tested in a glutamate uptake assays using HEK293 cells overexpressing recombinant human GLT-1. The second transporter was the glucose transporter GLUT1 tested in a glucose uptake assay using Huh-7 cells which endogenously express GLUT1. Compounds were considered to be selective with an at least 5-fold higher activity for INDY than for the other two transporters.
Cells were maintained in cell medium using cell culture grade flasks (CellSTACK Corning, 500 cm2 dishes or T175 depending on cell number). The selection antibiotic and G418 (800 μg/ml) was added during cultivation but not for seeding into assay plates. For splitting, cells were washed with PBS (w/o Ca2+, Mg2+, phenol red) and detached with Trypsin/EDTA. Throughout cultivation cells were kept sub-confluent. Detached cells (50,000 cells/well) were seeded in 96-well plates (white, clear bottom from Corning #655098) and incubated over night before usage in the assay. The following media were used. For HEK293 cells expressing INDY MEM (PAA)+10% FCS+1×P/S+2 mM L-Gln; for HEK293 cells expressing GLT-1 DMEM (Gibco)+10% FCS+400 µg/ml G418; for Huh7 cells DMEM (Gibco)+10% FCS+2 mM L-Gin (+1×P/S); for HepG2 cells MEM (PAA, Cat # E15-024)+10% FCS+2 mM L-Gin+1×NEAA+1 mM Na-Pyruvat
The following assay buffers for the particular uptake reaction were used. Citrate uptake buffer: 120 mM NaCl, 5.4 mM KCl, 0.8 mM MgSO4, 5 mM glucose, 1.8 mM CaCl2, 25 mM Hepes, 25 mM MES, pH 6.5. Glutamate uptake buffer: HBSS, 1 mM CaCl2, 1 mM MgCl2, 20 mM Hepes pH 7.4. Glucose uptake buffer: 25 mM Hepes+25 mM MES pH 7.4, 120 mM NaCl, 5.4 mM KCl, 1.8 mM CaCl2, 0.8 mM MgSO4.
As a counter assay, Glutamate uptake by the GLT-1 transporter was used. The principle of the assay is to measure the uptake of ^3H labelled glutamate into HEK cells, which overexpress human GLT-1.
The generation of a GLT-1 cell line was performed as follows: human GLT11 isoform sv1 cDNA (Origene # RC223924) was cloned into vector pFB-Neo-CMV-hGLT1 using QIAfilter Plasmid Midi Kit (Qiagen). Virus was generated in GP293 packaging cells (transfection of plasmid with Lipofectamine 2000+OptiMEM). For transfection into HEK cells GP293, supernatant containing virus was passed through a 0.45 micron sterile filter and DEAE-dextran was added at […] final concentration. The solution was used to transfect HEK293 cells at 37° C., 8.5% CO2. After 24 h selection marker G418 at 400 μg/ml was added and cultivation medium performed in DMEM 10% FBS.
The assay was performed in a 96-well format using repeated washing steps, cell lysis and addition of scintillation fluid. Assay buffer was HBSS, 1 mM CaCl2, 1 mM MgCl2, […] pH 7.4. Cells were seeded into white clear-bottom 96-well plates (50,000/well) in the presence of Poly-D-Lysine and incubated at 37° C. for 16-24 hours. Subsequently the plates were washed once with assay buffer using automated washing/LS 405 Selectors, BioTek ending with a buffer volume of 40 μl. Then 5 μl of compound solution in assay buffer was added and incubated for 20 min at 37° C. in cell incubator, HERA cell Heraeus. Afterwards 10 μl of substrate 3H-Glu (3 nM) were added and incubated for another 20 min at 37° C. in cell incubator, HERAcell. Then the plates were washed once with 200 μl cold assay buffer and 150 μl scintillation fluid was added. […]

INDY = INDY (Homo sapiens, UniProt Q86YT5); experiment: Fatty acid synthesis (FAS) assay from 14C-citrate in HepG2 cells; assay type: cell-based; conditions: 14C-citrate into fatty acids
Procedure: To test the functional activity of selected compounds and to bridge between the in vitro assay for citrate uptake to the physiological relevant lipid accumulation in liver cells a further functional cell assay was performed. This assay measured the effect of selected compounds on the citrate mediated fatty acid synthesis in hepatocytes.
Fatty acid synthesis (FAS) assay in HepG2: The principle of the assay is to measure the generation of ^14C-labelled fatty acids after uptake of ^14C labelled citrate into HepG2 cells. HepG2 cells were seeded into white clear-bottom 96-well plates (50,000/well) coated with collagen and incubated at 37° C. for 16-24 hours. After that plates were washed once with 100 μl PBS (+CaCl2+MgCl2) and 40 μl assay medium ([…] containing 11 mM glucose, 10 mM HEPES and 1 nM Insulin) per well was added. Test substances in assay medium were added ([…], 0.5% DMSO) and incubated for 20 min. After that 10 μl assay medium containing ^14C-citrate (final concentration 50 nM) and PrestoBlue reagent (1× final concentration; Life Technologies) were added and incubated for 60 min (37° C., 5% CO2). Cell viability was measured (Safire microplate reader, ex: 560/em: 590) and plates were incubated for another 30 min. Medium was removed by inverting the plate and cells were washed once with 100 μl ice-cold PBS. Cells were lysed with 50 μl lysis buffer (100 mM NaOH, 0.1% Triton X-100) and plate was sealed with Tape Pads and vortexed. For the saponification reaction plates were incubated for 16-24 hours at 80° C. Seals were removed and 200 μl […] was added for neutralisation of the pH. 150 μl from each well was transferred into the corresponding wells of a 96-well CytoStarT plate (Perkin Elmer) and sealed with TopSeal A (Perkin Elmer). Plates were incubated for 4 h at 70° C. and for 1 h at room temperature in the dark. Signal of ^14C radioactivity was measured (TopCount NXT scintillation counter, 1 min/well). As a positive control 5 mM citrate or 40 μM C75 (Sigma, C5490) was applied.

Sequence of INDY (Q86YT5 whole entry): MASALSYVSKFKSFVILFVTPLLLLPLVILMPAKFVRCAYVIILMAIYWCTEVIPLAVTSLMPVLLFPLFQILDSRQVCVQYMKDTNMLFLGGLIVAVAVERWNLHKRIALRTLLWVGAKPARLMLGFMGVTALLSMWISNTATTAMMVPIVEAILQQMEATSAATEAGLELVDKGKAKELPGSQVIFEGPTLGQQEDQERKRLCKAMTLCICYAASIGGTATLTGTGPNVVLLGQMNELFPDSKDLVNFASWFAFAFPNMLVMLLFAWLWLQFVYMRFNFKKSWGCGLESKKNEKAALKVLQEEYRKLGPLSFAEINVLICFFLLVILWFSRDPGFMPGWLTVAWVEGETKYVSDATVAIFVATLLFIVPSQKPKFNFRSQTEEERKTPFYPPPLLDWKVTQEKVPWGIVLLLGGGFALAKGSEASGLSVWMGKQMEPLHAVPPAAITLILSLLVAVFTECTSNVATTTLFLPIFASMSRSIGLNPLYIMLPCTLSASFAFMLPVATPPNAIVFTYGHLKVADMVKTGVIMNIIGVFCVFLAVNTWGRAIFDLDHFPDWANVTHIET
T1 sequence (P43004 whole entry): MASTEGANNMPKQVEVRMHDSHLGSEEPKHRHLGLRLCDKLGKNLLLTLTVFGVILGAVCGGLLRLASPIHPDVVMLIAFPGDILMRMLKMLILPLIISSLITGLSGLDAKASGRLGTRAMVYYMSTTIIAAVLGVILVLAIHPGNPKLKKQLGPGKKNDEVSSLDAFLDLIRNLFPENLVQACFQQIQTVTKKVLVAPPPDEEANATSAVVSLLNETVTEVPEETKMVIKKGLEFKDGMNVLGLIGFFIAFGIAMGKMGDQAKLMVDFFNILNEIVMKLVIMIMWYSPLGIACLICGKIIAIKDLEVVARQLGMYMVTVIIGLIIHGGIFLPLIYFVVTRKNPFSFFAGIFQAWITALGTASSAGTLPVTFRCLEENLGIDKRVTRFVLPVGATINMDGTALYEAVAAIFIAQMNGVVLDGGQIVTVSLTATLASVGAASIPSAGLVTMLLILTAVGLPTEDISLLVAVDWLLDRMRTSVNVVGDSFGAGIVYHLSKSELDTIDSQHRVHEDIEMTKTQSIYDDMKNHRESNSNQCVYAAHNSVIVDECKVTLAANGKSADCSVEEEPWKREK

Row | SMILES | IC50 (GLT-1) | IC50 (INDY)
1 | O=C(NCc1ccccc1F)C1CCN(S(=O)(=O)/C=C/c2ccccc2)CC1 [Example 5] | > 50000 nM | 1300 nM
2 | CC(C)(C)c1ccc(S(=O)(=O)N2CCC(C(=O)NCc3ccccc3F)CC2)cc1 [Example 12, 1-(4-tert-butylbenzenesulfonyl)-N-[(2-fluorophenyl)methyl]piperidine-4-carboxamide] | > 20000 nM | 600 nM
3 | O=C(NCc1ccccc1F)C1CCN(S(=O)(=O)c2ccc(C(F)(F)F)cc2)CC1 [Example 25, N-[(2-fluorophenyl)methyl]-1-[4-(trifluoromethyl)benzenesulfonyl]piperidine-4-carboxamide] | > 20000 nM | 400 nM
4 | O=C(NCc1ccccn1)C1CCN(S(=O)(=O)c2ccc(S(F)(F)(F)(F)F)cc2)CC1 [Example 86, 1-[4-(pentafluoro-lambda6-sulfanyl)benzenesulfonyl]-N-[(pyridin-2-yl)methyl]pipendine-4-carboxamide] | > 20000 nM | 400 nM
5 | O=C(NCc1ccccc1CO)C1CCN(S(=O)(=O)c2cc(Cl)cc(Cl)c2)CC1 [Example 87, 1-(3,5-dichlorobenzenesulfonyl)-N-{[2-(hydroxymethyl)phenyl]methyl}piperidine-4-carboxamide] | > 20000 nM | 600 nM

Now from value to compound:

Row | IC50 (GLT-1) | IC50 (INDY) | SMILES
6 | > 20000 nM | 30 nM | O=C(NCc1ccccc1F)C1CCN(S(=O)(=O)c2cc(Cl)cc(Cl)c2)CC1 [Example 44, 1-(3,5-dichlorobenzenesulfonyl)-N-[(2-fluorophenyl)methyl]piperidine-4-carboxamide]
7 | > 20000 nM | 6200 nM | COc1ccccc1CNC(=O)C1CN(S(=O)(=O)c2ccc(C(C)(C)C)cc2)C1 [Example 50, 1-(4-tert-butylbenzenesulfonyl)-N-[(2-methoxyphenyl)methyl]azetidine-3-carboxamide]
8 | > 20000 nM | 600 nM | O=C(NCc1ccccn1)C1CCN(S(=O)(=O)c2cc(Cl)cc(Cl)c2)CC1 [Example 55, 1-(3,5-dichlorobenzenesulfonyl)-N-[(pyridin-2-yl)methyl]piperidine-4-carboxamide]
9 | > 20000 nM | 2500 nM | O=C(NCc1ccccn1)C1CCN(S(=O)(=O)c2ccc(C(F)(F)F)cc2)CC1 [Example 57, N-[(pyridin-2-yl)methyl]-1-[4-(trifluoromethyl)benzenesulfonyl]piperidine-4-carboxamide]
10 | > 20000 nM | 200 nM | O=C(NCc1ccccn1)C1CCN(S(=O)(=O)c2cc(Cl)cc(C3CC3)c2)CC1 [Example 101, 1-(3-chloro-5-cyclopropylbenzenesulfonyl)-N-[(pyridin-2-yl)methyl]piperidine-4-carboxamide]
